Where two headings read alike, the source gives them in different places.
Assays:
[1] = Enzyme hydrolysis in plasma/buffer pH 7.4 mixture (80%-20%); format: in vitro ADME; details: for half-life: 80% plasma/buffer
Experimental: The half-times of enzyme hydrolysis of the novel bispilocarpates according to the invention and of known pilocarpic acid diesters were determined in a plasma/buffer pH 7.4-mixture (80%-20%) at 37°C. The degradation constants (k) for the compounds tested and determined from the plot showing the logarithm of remaining diester as a function of time and the half-lives T½ are shown in the Table II below. From the results it may be seen that in […] the stable test compound degrades under the influence of an enzyme (esterase) to a O,O'-dihydrogen bispilocarpate intermediate, which spontaneously degrades at pH 7.40 to pilocarpine. Consequently the effect of the bispilocarpate intermediate on the rate of formation of pilocarpine is very significant. The formation of pilocarpine was almost complete irrespective of the epimerization possibility of the intermediate. The amount of isopilocarpine formed varied from 0 to 10%, as also the pilocarpine formed epimerized, if the duration of hydrolysis was very long.

[2] = Stability of the compounds: buffer hydrolysis (half-times, shelf-life); format: physicochemical
Experimental: The stability of the test compounds were tested with buffer hydrolyses. The ionic strength (µ) of the buffers was 0.5, the pH-values used 4.2, 6.0, 7.4 and 9.0 and the temperatures used 37°C, 50 °C, 60 °C and 70 °C.
The half-times T½ calculated on basis of the degradation constant k obtained for each studied compound (T½=0.693/k; k = 2.303 x kk, wherein kk is the angular coefficient of the plot which illustrates the logarithm of the remaining ester as a function of time) in a buffer solution of said pH, are indicated in the Table I below, which values refer to half-times at 37°C.
The storage stability of the derivatives under different storage conditions may be estimated by determining the degradation constants at different temperatures and calculating the degradation constant k at the desired temperature from the equation of the plot corresponding to the Arrhenius equation (1), wherein log k is given as a function of [1/T]. Log k = Log A -(Ea)/(2.303R)x(1)/(T) [formula]
From the degradation constant (k) obtained at the desired temperature the shelf-life-time t10% (t10% = 0.104/k) which indicates the time during which 10% of the drug has degraded may be calculated. By way of example it may be mentioned that the t10%-time of O,O'-dipropionyl (1,4-xylylene) bispilocarpate at 4 °C is almost 500 days.

[3] = Corneal permeability in a diffusion chamber; format: in vitro ADME, rabbit
From the text: The corneal permeability of pilocarpine hydrochloride and its most promising prodrug derivatives as evaluated from the tests described above were studied in a diffusion chamber, wherein the migration of the compound from the delivering phase (epithelium side) thorugh the cornea to the acceptor side (endothelium side) of the diffusion chamber. In the study, rabbit eye cornea was used. From the samples taken from the acceptor side of the diffusion chamber, both the concentration of the prodrug and the liberated drug were determined in the acceptor phase with HPLC. Thus the rate of degradation of the prodrug in the cornea was determined. The permeability coefficients (Papp, cm/s) calculated from the permeability rate (μmol/min), their […] deviations (RSD) and the number of tests, are given in the Table II below.

[4] = pKa-value determination by titration in a water-ethanol mixture (50%-50%); format: physicochemical; details: water-ethanol 50:50; titration in water-ethanol mixture (50%-50%)
[5] = Lipophilicity: partition coefficient (octanol-buffer) and capacity factor by RP-HPLC; format: physicochemical; details: for chromatographic logP: reverse phase HPLC, 22°C, read-out: Capacity factor (22°C) k' (converted)
From the text: The lipophilicity of the compounds were studied by determining the partition coefficients (P) of the compounds at a pH of 7.40. The measurements were made either in an octanol-buffer mixture by determining the concentration of the compound to be studied in the buffer phase by HPLC. The partition coefficients of the very lipophilic compounds were, however, determined by reverse phase (RP) liquid chromatography (HPLC) from the retention time (Beckmann 116 pump and 166 UV detector; Marathon autom. sample feeder). […] From the results it can be seen that the compounds of the invention are considerably more lipophilic than the pilocarpine.

[6] = administered locally as eyedrops; cited from earlier work
[7] = Lipophilicity: partition coefficient (octanol-buffer) and capacity factor by RP-HPLC; format: physicochemical; details: pH 5.0
[8] = plasma/buffer pH 7.4 (80%-20%), 37°C, read-out: half-times (T½) in plasma (80%), 37°C
[9] = plasma/buffer pH 7.4 (80%-20%), 37°C
[10] = buffer pH 6.00, ionic strength 0.5, 37°C, read-out: Half-times in buffers at 37°C, T½, pH 6.00 (converted)
[11] = buffer pH 9.00, ionic strength 0.5, 37°C, read-out: Half-times in buffers at 37°C, T½, pH 9.00 (converted)
[12] = pH 4.2, buffer pH 4.20, ionic strength 0.5, 37°C, read-out: Half-times in buffers at 37°C, T½, pH 4.20 (converted)
[13] = pH 7.4, buffer pH 7.40, ionic strength 0.5, 37°C, read-out: Half-times in buffers at 37°C, T½, pH 7.40 (converted)
[14] = rabbit eye cornea, diffusion chamber, epithelium side to endothelium side, read-out: Permeability coefficient Papp
[15] = determined from the equation log k'= 0.182 Log P - 0.4086 (RP-HPLC retention)
[16] = buffer, pH 4.2, 50 °C, pH 4.20, read-out: Chemical hydrolysis t½, pH 4.20 (converted)
[17] = buffer, pH 7.4, 50 °C, pH 7.40, read-out: Chemical hydrolysis t½, pH 7.40 (converted)
[18] = buffer, 50 °C, pH 6.00, read-out: Chemical hydrolysis t½, pH 6.00 (converted)

Row | Structure (SMILES) | half-life [1, 8] | Degradation coefficient (k) in plasma (80%), 37°C [1, 9] | half-life [2, 10] | half-life [2, 11] | half-life [2, 12] | half-life [2, 13] | Papp [3, 14] | pKa [4] | chromatographic logP ([5]; rp-hplc) | further results
1 | CC[C@H](C(=O)OCc1ccc(COC(=O)[C@@H](CC)[C@H](COC(=O)C2CC2)Cc2cncn2C)cc1)[C@H](COC(=O)C1CC1)Cc1cncn1C [Example 13, O,O'-Dicyclopronylcarbonyl (1,4-xylylene) bispilocarpate] | 0.00972 days | 0.04998 min⁻¹ | 352 days | 14.1 days | 2640 days | 148 days | 15.8 ×10⁻⁶ cm/s | 6 | 0.392 | Partition coefficient log P ([5]; determined with an octanol-buffer-mixture, pH 7.40, 22 °C): 4.2015^1
2 | CCCCC(=O)OC[C@H](Cc1cncn1C)[C@H](CC)C(=O)OCc1ccc(COC(=O)[C@@H](CC)[C@H](COC(=O)CCCC)Cc2cncn2C)cc1 [Example 12, O,O'-Divaleryl (1,4-xylylene) bispilocarpate] | 0.00833 days | 0.05734 min⁻¹ | – | 0.292 days | – | – | 18.2 ×10⁻⁶ cm/s | 6 | 0.868 | Partition coefficient log P [5, 15]: 7.0165^2
3 | CC[C@@H]1C(=O)OC[C@@H]1Cc1cncn1C [Pilocarpine, (3S-cis)-3-ethyl-dihydro-4-[(1-methyl-1H-imidazol-5-yl)methyl]-2(3H)-furanone] | – | – | – | – | – | – | 4.1 ×10⁻⁶ cm/s | – | -0.392 | pilocarpine dose absorbed by the eye [6]: about 1%; pilocarpine dose absorbed in the blood stream [6]: about 70%
4 | CC[C@H](C(=O)OCCCCCOC(=O)[C@@H](CC)[C@H](COC(=O)C1CC1)Cc1cncn1C)[C@H](COC(=O)C1CC1)Cc1cncn1C [Example 21, O,O'-Dicyclopropylcarbonyl (1,5-pentylene) bispilocarpate] | 0.00903 days | – | – | – | – | – | – | – | – | half-life [2, 16]: 193 days; half-life [2, 17]: 23 days; half-life [2, 18]: 98.7 days; logD [7]: 0.401
5 | CC[C@H](C(=O)OCc1ccc(COC(=O)[C@@H](CC)[C@H](COC(C)=O)Cc2cncn2C)cc1)[C@H](COC(C)=O)Cc1cncn1C [Example 9, O,O'-Diacetyl (1,4-xylylene) bispilocarpate] | – | – | – | – | – | – | – | 6.03 | 0.146 | half-life ([1]; pH 7.4): 0.00625 days; Degradation coefficient (k) in plasma (80%), 37°C ([1]; pH 7.4): 0.0737 min⁻¹; half-life ([2]; buffer, pH 4.2): 165 days; half-life ([2]; buffer, pH 6): 48.4 days; half-life ([2]; buffer, pH 7.4): 11.4 days; half-life ([2]; buffer, pH 9): 1.42 days; Papp ([3]; rabbit): 9.3 ×10⁻⁶ cm/s; Partition coefficient log P ([5]; pH 7.4): 3.0432^1; Capacity factor (22°C) k' ([5]; rp-hplc): 1.3987
6 | CCCCC(=O)OC[C@H](Cc1cncn1C)[C@H](CC)C(=O)OCc1ccccc1 [valeryl, benzyl, reference compound] | 0.00625 days | 0.07876 min⁻¹ | – | 12.6 days | 356 days | 48.7 days | 11.5 ×10⁻⁶ cm/s | – | – | –
7 | CCC(=O)OC[C@H](Cc1cncn1C)[C@H](CC)C(=O)OCc1ccccc1 [propionyl, benzyl, reference compound] | 0.00417 days | 0.108 min⁻¹ | 222 days | 3.92 days | 90.8 days | 31.2 days | 14.3 ×10⁻⁶ cm/s | – | – | –
8 | CC[C@H](C(=O)OCCCCCCOC(=O)[C@@H](CC)[C@H](COC(=O)C1CC1)Cc1cncn1C)[C@H](COC(=O)C1CC1)Cc1cncn1C [Example 20, O,O'-Dicyclopropylcarbonyl (1,6-hexylene) bispilocarpate] | 0.0104 days | – | – | – | – | – | – | 6 | – | half-life [2, 16]: 134 days; half-life [2, 17]: 27.7 days; half-life [2, 18]: 142 days; logD [7]: 0.88
9 | CC[C@H](C(=O)OCc1ccccc1)[C@H](COC(=O)c1ccccc1)Cc1cncn1C [benzoyl, benzyl, reference compound] | 0.0125 days | 0.038 min⁻¹ | 203 days | 4.62 days | 444 days | 85.1 days | 8.7 ×10⁻⁶ cm/s | – | – | –
10 | CC[C@H](C(=O)OCc1ccccc1)[C@H](COC(C)=O)Cc1cncn1C [acetyl, benzyl, reference compound] | 0.0111 days | 0.04353 min⁻¹ | 144 days | 3.29 days | 320 days | 22.8 days | 11.7 ×10⁻⁶ cm/s | – | – | –
11 | CCCC(=O)OC[C@H](Cc1cncn1C)[C@H](CC)C(=O)OCc1ccc(COC(=O)[C@@H](CC)[C@H](COC(=O)CCC)Cc2cncn2C)cc1 [Example 11, O,O'-Dibutyryl (1,4-xylylene) bispilocarpate] | 0.00764 days | 0.06149 min⁻¹ | 46.4 days | 5.71 days | 250 days | 7.38 days | 21.5 ×10⁻⁶ cm/s | 6 | 0.603 | Partition coefficient log P [5, 15]: 5.5604^2
12 | CCC(=O)OC[C@H](Cc1cncn1C)[C@H](CC)C(=O)OCc1ccc(COC(=O)[C@@H](CC)[C@H](COC(=O)CC)Cc2cncn2C)cc1 [Example 10, O,O'-Dipropionyl (1,4-xylylene) bispilocarpate] | 0.00417 days | 0.1184 min⁻¹ | 50.6 days | 1.96 days | 91.8 days | 16.7 days | 30.5 ×10⁻⁶ cm/s | 5.8 | 0.362 | shelf-life-time t10% (time during which 10% of the drug has degraded) ([2]; at 4 °C, calculated from the Arrhenius plot): ~500 days
